These are literature values, as cited in patent publication US20070298098A1, “Controlled Release Compositions Comprising Levetiracetam” (ELAN PHARMA INTERNATIONAL LIMITED, priority 2005, published 2007).

Entries after “also recorded” stand apart in the source; their conditions may differ.

`CC[C@@H](C(N)=O)N1CCCC1=O` (single isomer, unassigned) [Levetiracetam]: the plasma half-life (across studies) was 6 to 8 h. Also, for the setting “dose range of 500-5000 mg”, the linearity of pharmacokinetics entry is on record as “linear”. Besides, for the setting “in vivo”, the “dependence of metabolism on liver cytochrome P450” value is “not liver cytochrome P450 dependent”; the “dose renally excreted unchanged” value is listed as 66%; the “major metabolic pathway (enzymatic hydrolysis of the acetamide group), share of dose” value is given as 24 % of dose. Further, the “time to steady state” value (multiple twice-daily dosing) is recorded as 2 days. Also, the “time of peak plasma concentrations” value (oral administration, fasted subjects) was “about an hour”. Besides, for the setting “with food”, the “decrease of Cmax by food” value is 20%, the “delay of Tmax by food” value was 1.5 h and the “effect of food on extent of bioavailability / absorption” value is “not affected by food; also recorded: Food does not affect the extent of absorption”.
